# Results reported in patent US20110243957A1, “MATERIALS AND METHODS FOR PREVENTING OR TREATING NEURODEGENERATIVE CONDITIONS ASSOCIATED WITH ABETA PEPTIDE ACCUMULATION” (University of South Florida, priority 2008, published 2011).
# Entries after “also recorded” stand apart in the source; their conditions may differ. Like-named read-outs stand apart in the source and are kept apart here.
# How the values were obtained:
# [1] = test system: embryonic rat cortical cells; test: Aβ toxicity assay, cell viability by MTT; format: cell-based; details: 5 μM Aβ + 10 μM inhibitor, 48 h; Aβ alone 73% (GW5074 experiment), 70% (ZM336372 experiment)
# [2] = test system: embryonic rat cortical cells; test: Aβ toxicity assay, calcein-AM/propidium iodide staining; format: cell-based; details: 5 μM Aβ + 10 μM GW5074, 48 h
# pNFκB/p65 (Ser276) = test: Aβ-dependent NFκB/p65 phosphorylation at serine 276 in cortical cells, Western blot; format: cell-based, rat; details: 10 μM GW5074 + 5 μM Aβ, 48 h, in comparison to Aβ treated cells
# ppErk1/2 = test: ppERK levels in cortex of mice, Western blot; format: in vivo
# Procedure: FIGS. 4A-4C. […] After this time mice were sacrificed and the levels of pcRaf-1[Ser338] and pERK1/2 were analyzed by Western blot as described in Experimental Procedures. […] (n=5) (FIG. 4B) in the cortex than untreated Tg mice (n=4). The differences were significant for ppERKs, *P=0.016 and pcRaf-1[Ser338], *P=0.018. (FIG. 4C) Phosphorylation of cRaf-1 at Ser 259 and Ser 338. […] NT, wild-type age-matched control littermates.
# (§1) Western blotting. […] (1:100) (GenScript Corporation, NJ, USA).
# pcRaf-1[Ser338] = pcRaf-1[Ser338] levels in cortex of mice, Western blot; format: in vivo; details: wild type NT mice
# pNF-κB[Ser276] = pNF-κB[Ser276] levels in cortex of mice, Western blot; format: in vivo; details: for levels of pNF-κB[Ser276] vs control Tg mice: cortex, 20 mg/kg/day, four months
# Excerpt: (§2) FIGS. 5A-5E. […] NT, wild type age-matched control littermates.
# as §1
# Cox-2 = Cox-2 levels in cortex of mice, Western blot; format: in vivo; details: for levels of Cox-2 vs control Tg mice: cortex, 20 mg/kg/day, four months
# iNOS = iNOS levels in cortex of mice, Western blot; format: in vivo
# Excerpt: as §2, §1
# Aβ40 = test: Total Aβ40 levels in cortex, ELISA; format: in vivo; details: Tg mice, Study 2 (4 mo. treatment), ns vs Tg
# Aβ42 = test: Total Aβ42 levels in cortex, ELISA; format: in vivo; details: Tg mice, ns vs Tg
# Procedure: Determination of Aβ levels. The levels of Aβ1-40 and Aβ1-42 were quantified in the brain tissues by ELISA.
# Total Aβ levels. Brain tissues were prepared by sonication of the samples in 5 M guanidine HCl, and 50 mM Tris-HCl. pH 8.0. After sonication, samples were incubated for 3 h at room temperature and centrifuged at 16,000×g for 20 min at 4° C. The supernatants were stored at −80° C. For analysis, the supernatants were diluted using PBS with 5% BSA and 0.03% Tween-20 supplemented with 1× protease inhibitor cocktail (Roche, USA) and further used to determine total Aβ levels using a commercial ELISA kit (Invitrogen, Carlsbad, Calif., USA), according to the manufacturer's recommendations.
# Aβ levels represent the concentration of amyloid peptides in the cortex (A, C) and hippocampus (B, D) of the mice expressed as picogram by milligram (pg/mg) of brain tissue. Total peptide levels correspond to the levels found in the supernatant of cortical tissues homogenized in 5 M guanidinium chloride. Soluble Aβ levels correspond to the levels found in the supernatant of hippocampal tissues of the mice homogenized in the Triton-soluble fractions. ns, Not significant (P>0.05).
# p-CREB[Ser 133] = test: CREB phosphorylated at Ser 133 in cortex, Western blot; format: in vivo; details: Tg mice, four months treatment, vs control Tg mice
# Excerpt: as §1
# APPswe (Tg) and NT mice [3] = format: in vivo; details: during treatment (20 mg/kg/day)
# Excerpt: RAWM. For the RAWM task of spatial working memory (Arendash et al. (2001b); Arendash et al. (2007); Ethell et al. (2006)), an aluminum insert was placed into a 100 cm circular pool to create six radially distributed swim arms emanating from a central circular swim area (Arendash et al. (2001a); Ethell et al. (2006)). An assortment of 2-D and 3-D visual cues surrounded the pool. The number of errors prior to locating which one of the six swim arms contained a submerged escape platform (9 cm diameter) was determined in each of five trials every day. There was a 20-min time delay between the 4th trial (T4; final acquisition trial) and 5th trial (T5; memory retention trial). […] During each trial (60 s maximum), the mouse was returned to that trial's start arm upon swimming into an incorrect arm and the number of seconds required to locate the submerged platform was recorded. […]
# For statistical analysis of RAWM data, the 8 days of pre-treatment testing (four 2-day blocks) or the 9 days of during-treatment testing (three 3-day blocks) were evaluated for individual blocks, as well as over all blocks, using one-way ANOVAs. […] One-way ANOVAs were employed for each of the four behavioral measures analyzed, followed by post hoc Fisher's LSD test to determine group differences. […]
# APPswe (Tg) and NT mice [4] = test: Cognitive interference task of working memory; format: in vivo
# Excerpt: Interference test details. Cognitive Interference Task. This task involves two radial arm water maze set-ups in two different rooms, and different sets of visual cues. The task requires animals to remember a set of visual cues, so that following interference with a different set of cues, the initial set of cues can be recalled to successfully solve the radial arm water maze task. A set of […] behavioral measures were examined. Behavioral measures are: A1-A3 (Composite three-trial recall score from first 3 trials performed in RAWM “A”), “B” (proactive interference measure attained from a single trial in RAWM “B”), A4 (retroactive interference measure attained during a single trial in RAWM “A”), and “A5” (delayed-recall measure attained from a single trial in RAWM “A” following a 20 min delay between A4 and A5). As with the standard RAWM task, this interference task involves the platform location being changed daily to a different arm for both of the RAWM set-ups utilized, and different start arms for each day of testing for both RAWM set-ups. For A1 and B trials, the animal is initially allowed one minute to find the platform on their own before they are guided to the platform. Then the actual trial is performed in each case. As with the standard RAWM task, animals were given 60-s to find the escape platform, with the number of errors and escape latency recorded for each trial.
# Cognitive interference task. This task involves two RAWM setups in two different rooms, and three different sets of visual cues. The task requires animals to remember a set of visual cues, so that following interference with a different set of cues, the initial set of cues can be recalled to successfully solve the RAWM task. A set of four behavioral measures was examined through six successive daily trials. Behavioral measures were A1-A3 (Composite three-trial recall score from first three trials performed in RAWM “A”), “B” (proactive interference measure attained from a single trial in RAWM “B”), A4 (retroactive interference measure attained during a single trial in RAWM “A”), and “A5” (delayed-recall measure attained from a single trial in RAWM “A” following a 20 min delay between A4 and A5). As with the standard RAWM task, this interference task involves the platform location being changed daily to a different arm for both of the RAWM setups utilized, and different start arms for each day of testing for both RAWM setups. For A1 and B trials, the animal is initially allowed 1 min to find the platform on its own before being guided to the platform. Then the actual trial is performed in each case. Also, between each trial, animals were placed into a Y-maze apparatus for 30 seconds as an inter-trial interfering experience. As with the standard RAWM task, animals were given 60 s to find the escape platform for each trial, with the number of errors and escape latency recorded for each trial.
# For statistical analysis of RAWM data, the 8 days of pre-treatment testing (four 2-day blocks) or the 9 days of during-treatment testing (three 3-day blocks) were evaluated for individual blocks, as well as over all blocks, using one-way ANOVAs. Thereafter, post hoc pair-by-pair differences between groups were resolved with the Fisher LSD (least significant difference) test.
# PKA [5] = details: cited from earlier work
# [6] = Kane et al. (2006); cited from earlier work
# IκBα = IκBα levels in cortex of mice, Western blot; details: two months treatment
# PKA [7] = test: PKA kinase activity ELISA in brain extracts of treated mice; details: Tg mice, four months treatment
# [8] = wild type mice (data not shown)
smiles,measurement,setting,value
"O=C1Nc2ccc(I)cc2/C1=C/c1cc(Br)c(O)c(Br)c1 [GW5074, 5-iodo-3-[(3,5-dibromo-4-hydroxyphenyl)methy-lene]-2-indolinone]","cell survival, % of control levels (MTT)",[1],93%
same,number of PI stained cells after Aβ exposure,[2],decreased dramatically
same,NFκB/p65 phosphorylation at serine 276,pNFκB/p65 (Ser276),nine-fold decrease
"Cc1ccc(NC(=O)c2cccc(N(C)C)c2)cc1NC(=O)c1ccc(O)cc1 [ZM336372, N-[5-(dimethyl-aminobenzamide)-2-methylphenyl]-4-hydroxybenzamide]","cell survival, % of control levels (MTT)",[1],86%
"CNC(=O)c1cc(Oc2ccc(NC(=O)Nc3ccc(Cl)c(C(F)(F)F)c3)cc2)ccn1 [Sorafenib, 4-(4-phenoxy)-N2-methylpyridine-2 carboxamide 4-methylbenzenesulfonate]",decrease in levels of ppERK compared to control Tg mice,"ppErk1/2; Tg mice, cortex, 20 mg/kg gavage, two months",29%
same,ERK phosphorylation vs untreated NT mice,ppErk1/2; wild type NT mice,No changes
same,cRaf-1 phosphorylation vs untreated NT mice,pcRaf-1[Ser338],No changes
same,levels of pNF-κB[Ser276] vs control Tg mice,pNF-κB[Ser276],significantly lower levels
same,levels of pNF-κB[Ser276] vs control Tg mice,pNF-κB[Ser276]; listed as sorafenib,significantly reduced
same,pNF-κB[Ser276] levels vs untreated wild type mice,pNF-κB[Ser276]; [8],No differences
same,levels of Cox-2 vs control Tg mice,Cox-2,lower levels
same,levels of Cox-2 vs control Tg mice,Cox-2; listed as sorafenib,substantially lower levels
same,Cox-2 levels vs untreated wild type mice,Cox-2; [8],No differences
same,lower expression of iNOS than control Tg mice,"iNOS; Tg mice, cortex, 20 mg/kg/day, four months",81%
same,iNOS levels vs untreated wild type mice,iNOS; [8],No differences
same,Aβ40 total levels,Aβ40,"36,140 ± 9.281 ns, P = 0.5193 pg/mg"
same,Aβ42 total levels,Aβ42; Study 1 (2 mo. treatment),"22,570 ± 5,946 ns, P = 0.4568 pg/mg"
same,Aβ42 total levels,Aβ42; Study 2 (4 mo. treatment),"71,980 ± 26,210 ns, P = 0.9914 pg/mg"
same,CREB phosphorylation at Ser 133 in cortex,p-CREB[Ser 133],significantly increased; also recorded: significantly higher
same,T5 errors over all blocks of RAWM testing,"APPswe (Tg) and NT mice [3]; NT mice, NT vehicle 0.9±0.4",1.1±0.2 errors
same,T5 errors over all blocks of RAWM testing,"APPswe (Tg) and NT mice [3]; Tg mice, Tg vehicle 1.9±0.3",1.9±0.2 errors
same,working memory in interference test vs vehicle-treated APPswe mice,"APPswe (Tg) and NT mice [4]; APPswe mice, 2 months treatment, p<0.01",significant improvement in working memory
same,"performance in any measure of cognitive interference testing, NT+sorafenib vs NT",APPswe (Tg) and NT mice [4]; NT mice,no differences in performance
same,"20-min delayed recall (A5), beneficial effects","APPswe (Tg) and NT mice [4]; Tg mice, final day of testing",not evident
same,three-trial recall (A1-A3),"APPswe (Tg) and NT mice [4]; Tg mice, final day of testing, errors and escape latency",performed identically to NT mice; also recorded: comparable to NT controls
same,three-trial recall (A1-A3),"APPswe (Tg) and NT mice [4]; Tg mice, first day of interference testing, compared to NT mice",impaired
same,20-min delayed recall (A5),"APPswe (Tg) and NT mice [4]; Tg mice, first day of testing",significantly better and no different from NT mice; also recorded: much better delayed recall performance
same,proactive interference (B),"APPswe (Tg) and NT mice [4]; Tg mice, first day of testing",relatively high escape latency
same,proactive interference (B),"APPswe (Tg) and NT mice [4]; Tg mice, last day of testing",performed significantly better than Tg controls and identically to NT mice; also recorded: performed substantially better than Tg controls
same,retroactive interference (A4),APPswe (Tg) and NT mice [4]; first and last day of testing,no effect of genotype or sorafenib treatment
same,IC50,PKA [5],> 10 µM
same,blood-brain barrier,[6],crosses the blood-brain barrier
same,higher levels of IκBα protein expression compared to control Tg mice,IκBα,117%
same,PKA activity in cortex,PKA [7],restored PKA activity in Tg mice to values similar to those observed in NT mice
same,PKA activity in cortex,PKA [7]; listed as sorafenib,comparable to NT mice
